Reference: patent US11332463B2, “Spiropiperidine allosteric modulators of nicotinic acetylcholine receptors” (Merck Sharp & Dohme Corp., priority 2018, dated 2022)
Where two headings read alike, the source gives them in different places.

Molecular target: T1, human α7 nicotinic acetylcholine receptor (HEK cell line stably expressing human RIC-3 and human α7) (Homo sapiens, UniProt P36544)
T1 construct: host or cells: HEK cell line (PrecisION hnAChR α7/RIC-3)
Assay: Automated patch-clamp electrophysiology functional assay (Assay A), IonFlux HT, whole-cell population patch
Format: cell-based

[1] = HEK cells expressing human α7/RIC-3, test compound with or without 40 μM acetylcholine, holding potential −60 mV, room temperature, read-out: α7 nAChR Potency
[2] = automated patch-clamp electrophysiology functional assay (Assay A), read-out: α7 nAChR EC50

T1 sequence (P36544 23-502): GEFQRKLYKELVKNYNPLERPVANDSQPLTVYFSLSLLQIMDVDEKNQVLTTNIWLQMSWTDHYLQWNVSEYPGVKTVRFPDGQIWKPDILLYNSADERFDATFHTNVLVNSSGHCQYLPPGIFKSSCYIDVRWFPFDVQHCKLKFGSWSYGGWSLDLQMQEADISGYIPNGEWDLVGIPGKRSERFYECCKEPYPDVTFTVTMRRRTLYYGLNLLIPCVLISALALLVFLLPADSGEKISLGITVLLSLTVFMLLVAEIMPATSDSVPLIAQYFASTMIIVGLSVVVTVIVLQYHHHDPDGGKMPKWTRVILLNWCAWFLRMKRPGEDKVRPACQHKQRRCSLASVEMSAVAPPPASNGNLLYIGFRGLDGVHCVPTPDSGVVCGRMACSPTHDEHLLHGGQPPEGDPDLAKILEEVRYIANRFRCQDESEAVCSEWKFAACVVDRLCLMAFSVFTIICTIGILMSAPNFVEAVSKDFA

SMILES	EC50 [1]	EC50 [2]
NS(=O)(=O)N1CCC2(C(F)C1)C(c1nc(-c3conc3C3CC3)no1)C2(F)F (single isomer, unassigned) [Example I13]	500 to 5000 nM	600 nM
NS(=O)(=O)N1CCC2(CC1)C[C@H]2c1noc(C2(c3cccc(C(F)(F)F)c3)CC2)n1 [Example E14]	500 to 5000 nM	2000 nM
NS(=O)(=O)N1CCC2(CC1)C[C@H]2c1noc(-c2ccc(F)cc2C(F)(F)F)n1 [Example D16]	100 to 500 nM	160 nM
Cc1noc(C)c1Cc1nc([C@@H]2CC23CCN(S(N)(=O)=O)CC3)no1 [Example E28]	500 to 5000 nM	–
Cc1cnn(C2CC2)c1-c1noc(C2C(F)(F)C23CCN(S(N)(=O)=O)CC3)n1 (stereo not drawn) [Example C10]	< 100 nM	82 nM
NS(=O)(=O)N1CCC2(CC2c2nc(-c3conc3C3CC3)no2)C(F)C1 (single isomer, unassigned) [Example I6]	500 to 5000 nM	840 nM
Cc1ccc(C)c(-c2noc(C3CC34CCN(S(N)(=O)=O)CC4(F)F)n2)c1 (single isomer, unassigned) [Example I4]	500 to 5000 nM	1500 nM
NS(=O)(=O)N1CCC2(CC1)C[C@H]2c1noc(-c2cccc(-n3nccc3C(F)(F)F)c2)n1 [Example E70]	500 to 5000 nM	2300 nM
COc1ccc(Cl)cc1-c1noc(C2CC23CCN(S(=O)(=O)c2ccsc2)CC3)n1 (racemic) [Example B2]	500 to 5000 nM	–
NS(=O)(=O)N1CCC2(CC1)C[C@H]2c1noc(-c2ccc(OC(F)F)cc2)n1 [Example D14]	500 to 5000 nM	–
NS(=O)(=O)N1CCC2(CC1)C[C@H]2c1csc(-c2cccc(OC(F)(F)F)c2)n1 [Example 7, (1R)-1-{2-[3-(Trifluoromethoxy)phenyl]-1,3-thiazol-4-yl}-6-azaspiro[2.5]octane-6-sulfonamide]	500 to 5000 nM	1100 nM
Cc1ccccc1-c1nnc([C@@H]2CC23CCN(S(N)(=O)=O)CC3)s1 [Example F8]	500 to 5000 nM	750 nM
NS(=O)(=O)N1CCC2(CC1)C[C@H]2c1nc(-c2cc(F)ccc2C(F)(F)F)no1 [Example A4]	500 to 5000 nM	850 nM
NS(=O)(=O)N1CCC2(CC1)C[C@H]2c1noc(C2CC(c3ccccc3)C2)n1 (mixture of isomers) [Example E15]	500 to 5000 nM	1500 nM
NS(=O)(=O)N1CCC2(CC2c2nc(-c3cccc(OC(F)F)c3)no2)C(F)C1 (single isomer, unassigned) [Example I2]	500 to 5000 nM	1000 nM
NS(=O)(=O)N1CCC2(CC1)[C@H](c1cc(-c3ccc(F)cc3C(F)(F)F)on1)C2(F)F [Example G9]	< 100 nM	78 nM
NS(=O)(=O)N1CCC2(C(F)C1)C(c1nc(-c3ccc(F)cc3C(F)(F)F)no1)C2(F)F (stereo not drawn) [Example I17]	500 to 5000 nM	–
NS(=O)(=O)N1CCC2(CC1)[C@H](c1nnc(-c3ccnn3C3CC3)s1)C2(F)F [Example 17, (2S)-2-[5-(1-Cyclopropyl-1H-pyrazol-5-yl)-1,3,4-thiadiazol-2-yl]-1,1-difluoro-6-azaspiro[2.5]octane-6-sulfonamide]	500 to 5000 nM	550 nM
NS(=O)(=O)N1CCC2(CC1)[C@H](c1noc(-c3cnn4c3CSCC4)n1)C2(F)F [Example 18, (2R)-2-[5-(6,7-Dihydro-4H-pyrazolo[5,1-c][1,4]thiazin-3-yl)-1,2,4-oxadiazol-3-yl]-1,1-difluoro-6-azaspiro[2.5]octane-6-sulfonamide]	500 to 5000 nM	800 nM
NS(=O)(=O)N1CCC2(CC1)C[C@H]2c1noc(-c2ccc(Cl)cc2C(F)(F)F)n1 [Example D7]	500 to 5000 nM	590 nM
CCn1nc(C)cc1-c1nc([C@@H]2CC23CCN(S(N)(=O)=O)CC3)no1 [Example E21]	100 to 500 nM	400 nM
Cc1noc(C)c1-c1noc(C2C(F)(F)C23CCN(S(N)(=O)=O)CC3)n1 (racemic) [Example C3]	100 to 500 nM	400 nM
NS(=O)(=O)N1CCC2(CC1)[C@H](c1nnc(-c3ccnn3C3CC3)o1)C2(F)F [Example 16, (2R)-2-[5-(1-Cyclopropyl-1H-pyrazol-5-yl)-1,3,4-oxadiazol-2-yl]-1,1-difluoro-6-azaspiro[2.5]octane-6-sulfonamide]	100 to 500 nM	450 nM
COc1ccc(Cl)cc1-c1noc([C@H]2CC23CCN(S(N)(=O)=O)CC3)n1 [Example H1]	5000 to 50000 nM	–
NS(=O)(=O)N1CCC2(CC1)[C@H](c1cc(-c3ccc(F)cc3C(F)(F)F)ns1)C2(F)F [Example G11]	100 to 500 nM	120 nM
